≈ marks a conversion by molar mass, not a printed value.
Columns and labels:
[1] = target: T1, glucocerebrosidase (Gcase) (Homo sapiens, UniProt P04062); experiment: Glucocerebrosidase (Gcase) activation assay, 4-methylumbelliferyl-beta-D-glucopyranoside substrate, fluorescence readout; type: biochemical; conditions: for activation at 0.1 µM: read-out: Percent Gcase Activation, 0.1 μM Test Compound; for activation at 1 µM: read-out: Percent Gcase Activation, 1 μM Test Compound
T1 construct: micellar solution containing 10 nM GCase and 100 nM saposin C
T1 sequence (P04062 40-536): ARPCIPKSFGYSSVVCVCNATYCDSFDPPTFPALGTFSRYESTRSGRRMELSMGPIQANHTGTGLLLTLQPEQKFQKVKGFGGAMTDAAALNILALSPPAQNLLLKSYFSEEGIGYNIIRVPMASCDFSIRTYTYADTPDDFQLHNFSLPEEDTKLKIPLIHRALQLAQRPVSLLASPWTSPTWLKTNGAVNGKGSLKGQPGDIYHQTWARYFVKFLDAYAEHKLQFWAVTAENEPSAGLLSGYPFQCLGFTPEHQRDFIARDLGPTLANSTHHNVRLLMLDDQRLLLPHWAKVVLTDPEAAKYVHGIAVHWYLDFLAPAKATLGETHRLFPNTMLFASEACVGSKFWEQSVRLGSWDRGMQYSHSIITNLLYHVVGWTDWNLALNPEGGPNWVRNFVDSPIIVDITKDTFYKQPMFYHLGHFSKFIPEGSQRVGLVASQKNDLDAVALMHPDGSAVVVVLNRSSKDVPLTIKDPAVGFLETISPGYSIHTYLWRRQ
How it was run: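 Readout is endpoint fluorescence (ex 365, em 440 nm) after glycine pH 12.5 stop of a 15-min room-temperature reaction. Enzyme mix: GCase 10 nM plus saposin C 100 nM in 0.37 mol % PS/0.32 mM triton micelles, pH 4.7, compound pre-incubated 30 min; substrate solution 2 mM before 1:1 mixing. Tested at 1.0/0.1 μM, then 3-fold, 8-point series up to 5 μM.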

[2] = Compound solubility in water; conditions: water; for solubility: Compound Solubility in Water

activation at 0.1 µM ([1]; test compound at 0.1 μM) | activation at 1 µM ([1]; test compound at 1.0 μM) | solubility ([2]; in water) | solubility [2] | Percent Gcase Activation, 0.1 μM Test Compound ([1]; test compound at 0.1 μM) | Percent Gcase Activation, 1 μM Test Compound ([1]; test compound at 1.0 μM) | Compound Solubility in Water [2] | SMILES
< 10% | 30 to 60% | 3 µg/mL (≈ 7.02 µM) |  |  |  |  | COCc1cc(C2CC2)n2ccc(C(=O)NC3(C)CCOc4cc(F)c(F)cc43)c2n1 (stereo not drawn) [III-270]
> 20% | > 60% | 1.5 µg/mL (≈ 4.42 µM) |  |  |  |  | Cc1cc(C)n2ccc(C(=O)NC3CCOc4c(F)cccc43)c2n1 (stereo not drawn) [III-224]
> 20% | > 60% |  | 1.4 µg/mL (≈ 3.96 µM) |  |  |  | Cc1cc(C)n2ccc(C(=O)NC3(C)CCOc4cccc(F)c43)c2n1 (stereo not drawn) [III-118]
10 to 20% | > 60% |  | 2 µg/mL (≈ 6.82 µM) |  |  |  | Cc1cc(C)n2ccc(C(=O)N[C@@H](C)c3ccccc3)c2n1 [III-166]
< 10% | < 30% |  | 1.8 µg/mL (≈ 5.38 µM) |  |  |  | Cc1cc(O)n2ccc(C(=O)Nc3ccc(-c4cocn4)cc3)c2n1 [III-55]
> 20% | > 60% |  | 3.4 µg/mL (≈ 10.6 µM) |  |  |  | [2H]C1(NC(=O)c2ccn3c(C)cc(C)nc23)CCCc2ccccc21 (stereo not drawn) [III-131]
< 10% | < 30% |  | 17.2 µg/mL (≈ 48.8 µM) |  |  |  | Cc1cc(C)n2ccc(C(=O)Nc3ccc(OCCCCN)cc3)c2n1 [III-19]
10 to 20% | > 60% |  | 5.3 µg/mL (≈ 14.6 µM) |  |  |  | CO[C@H]1CC[C@H](C(C)(C)NC(=O)c2ccn3c(C)cc(Cl)nc23)CC1 [III-75]
> 20% | > 60% |  | 0.9 µg/mL (≈ 2.53 µM) |  |  |  | Cc1cc(C(F)F)nc2c(C(=O)NC3CCCc4ccccc43)ccn12 (stereo not drawn) [III-29]
< 10% | < 30% |  | 15.5 µg/mL (≈ 45 µM) |  |  |  | CCCCOC(=O)N1CC(NC(=O)c2ccn3c(C)cc(C)nc23)C1 [III-137]
> 20% | > 60% |  | 0.1 µg/mL (≈ 0.251 µM) |  |  |  | Cc1cc(C)n2ccc(C(=O)Nc3ccc4c(c3)C(Oc3cccnc3)CC4)c2n1 (stereo not drawn) [III-120]
10 to 20% | > 60% | 3.8 µg/mL (≈ 11.8 µM) |  |  |  |  | Cc1cc(C)n2ccc(C(=O)NC3CCOc4ccccc43)c2n1 (stereo not drawn) [III-211]
< 10% | < 30% |  | 3.7 µg/mL (≈ 11.5 µM) |  |  |  | Cc1cc(O)n2ccc(C(=O)NC3CCCc4ccccc43)c2n1 (stereo not drawn) [III-56]
10 to 20% | > 60% |  | 3.5 µg/mL (≈ 8.65 µM) |  |  |  | COCc1cc(C)n2ccc(C(=O)NC(C)(C)c3ccc(-c4cocn4)cc3)c2n1 [III-48]
10 to 20% | > 60% |  | 0.07 µg/mL (≈ 0.168 µM) |  |  |  | [2H]C1(NC(=O)c2ccn3c(COC)cc(C(C)C)nc23)CCOc2cc(F)c(F)cc21 (stereo not drawn) [III-59]
< 10% | 30 to 60% | 27.1 µg/mL (≈ 80.6 µM) |  |  |  |  | Cc1cc(C)n2ccc(C(=O)NC3CC=C(c4ncco4)CC3)c2n1 (stereo not drawn) [III-247]
 |  |  |  | *** (greater than 20% Gcase activation) | +++ (Gcase activation greater than 60%) | 17.2 µg/mL | CCCCCOC1CCC(NC(=O)c2ccn3c(C)cc(C)nc23)C1 (stereo not drawn) [III-177]
10 to 20% | > 60% |  | 13.1 µg/mL (≈ 41.5 µM) |  |  |  | CCCCO[C@H]1C[C@H](NC(=O)c2ccn3c(C)cc(C)nc23)C1 [III-198]
> 20% | > 60% |  | 18.1 µg/mL (≈ 52.7 µM) |  |  |  | CCCCO[C@H]1CC[C@H](NC(=O)c2ccn3c(C)cc(C)nc23)CC1 [III-26]
10 to 20% | > 60% | 0.8 µg/mL (≈ 1.99 µM) |  |  |  |  | CCCCO[C@H]1CC[C@H](NC(=O)c2ccn3c(COC)cc(CCC)nc23)CC1 [III-269]
10 to 20% | > 60% | 2.3 µg/mL (≈ 6.68 µM) |  |  |  |  | Cc1cc(C)n2ccc(C(=O)NC3CCCc4ccc(C#N)cc43)c2n1 (stereo not drawn) [III-209]
> 20% | > 60% | 8.7 µg/mL (≈ 25.3 µM) |  |  |  |  | Cc1cc(C)n2ccc(C(=O)N[C@H]3CC[C@H](OCC(C)C)CC3)c2n1 [III-288]
10 to 20% | > 60% |  | 11.1 µg/mL (≈ 32.3 µM) |  |  |  | CC[C@H](C)O[C@H]1CC[C@H](NC(=O)c2ccn3c(C)cc(C)nc23)CC1 [III-125]
10 to 20% | 30 to 60% |  | 0.7 µg/mL (≈ 1.98 µM) |  |  |  | Cc1cc(Cl)n2ccc(C(=O)Nc3ccc(-c4cocn4)cc3)c2n1 [III-39]
10 to 20% | > 60% |  | 0.8 µg/mL (≈ 2.07 µM) |  |  |  | Cc1cc(C)n2ccc(C(=O)NC3CCCc4ccc(-c5cocn5)cc43)c2n1 (stereo not drawn) [III-122]
